Where two headings read alike, the source gives them in different places.

The target in one assay is T1, LKB1 (Homo sapiens, UniProt Q15831+Q7RTN6).
T1 sequence (Q15831 1-433): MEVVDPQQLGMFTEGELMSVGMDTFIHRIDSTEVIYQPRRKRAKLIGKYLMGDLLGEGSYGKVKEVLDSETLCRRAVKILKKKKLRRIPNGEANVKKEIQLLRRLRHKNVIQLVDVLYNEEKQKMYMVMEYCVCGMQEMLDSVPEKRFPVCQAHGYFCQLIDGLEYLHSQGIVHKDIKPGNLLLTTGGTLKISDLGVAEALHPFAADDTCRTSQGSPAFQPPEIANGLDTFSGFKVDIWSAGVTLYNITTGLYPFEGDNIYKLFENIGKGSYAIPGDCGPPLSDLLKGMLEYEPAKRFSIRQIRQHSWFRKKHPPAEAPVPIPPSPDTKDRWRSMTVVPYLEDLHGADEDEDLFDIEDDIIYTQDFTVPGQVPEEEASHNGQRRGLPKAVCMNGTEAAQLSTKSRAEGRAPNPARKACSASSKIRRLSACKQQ
T1 sequence (Q7RTN6 1-431): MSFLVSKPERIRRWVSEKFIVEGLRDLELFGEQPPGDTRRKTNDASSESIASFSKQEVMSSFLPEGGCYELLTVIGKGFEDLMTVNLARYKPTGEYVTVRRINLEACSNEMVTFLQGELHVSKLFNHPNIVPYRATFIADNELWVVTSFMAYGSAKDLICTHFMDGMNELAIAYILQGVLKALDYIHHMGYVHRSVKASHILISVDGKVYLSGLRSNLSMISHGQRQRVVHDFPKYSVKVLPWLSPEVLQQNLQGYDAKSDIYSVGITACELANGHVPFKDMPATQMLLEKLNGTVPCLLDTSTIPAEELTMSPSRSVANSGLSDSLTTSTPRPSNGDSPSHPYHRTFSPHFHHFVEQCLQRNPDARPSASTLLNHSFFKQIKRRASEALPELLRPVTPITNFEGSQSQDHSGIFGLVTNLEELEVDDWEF
T1 sequence (Q9Y376 1-341 partner): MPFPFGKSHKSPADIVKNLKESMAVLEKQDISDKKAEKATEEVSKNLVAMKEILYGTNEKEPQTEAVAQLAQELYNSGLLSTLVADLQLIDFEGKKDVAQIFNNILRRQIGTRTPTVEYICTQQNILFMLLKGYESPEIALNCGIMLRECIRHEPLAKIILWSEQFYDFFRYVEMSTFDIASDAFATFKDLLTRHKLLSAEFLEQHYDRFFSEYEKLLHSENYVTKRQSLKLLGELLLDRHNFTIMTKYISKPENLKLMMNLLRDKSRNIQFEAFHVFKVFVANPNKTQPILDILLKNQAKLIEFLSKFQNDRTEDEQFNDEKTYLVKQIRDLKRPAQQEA
Put plainly: in vitro LKB1 functional activity. In kind it is biochemical. The settings on record: APA analogs.

For another assay, the system named is ACHN cell line. Put plainly: drug screen of the SelleckChem kinase inhibitor library with and without 5 uM SU-329, Cell-Titer Glo after 5 days. The format is cell-based.
[1] abbreviates: kinase inhibitor at 200 nM with and without 5 uM SU329, ACHN cell line, 5 days, Cell-Titer Glo.

`Cc1ccc(-c2cnc(N)c(C(=O)Nc3ccc(P(=O)(O)O)cc3)n2)cc1` [SU20668-0196, 4-(3-amino-6-p-tolylpyrazine-2-carboxamido)phenylphosphonic acid]: on LKB1, the “LKB1 % Act. Increase” value was “C (C=199-1000%)”. Consider `CCOP(=O)(OCC)c1ccc(NC(=O)c2nc(-c3ccc(C)cc3)cnc2N)cc1` [SU20668-0211, diethyl 4-(3-amino-6-p-tolylpyrazine-2-carboxamido)phenylphosphonate], for which, on LKB1, the “LKB1 % Act. Increase” value is recorded as “D (D=<1000%)”.

Take `Cc1ccc(-c2cnc(N)c(C(=O)Nc3ccc(C(=O)O)cc3)n2)cc1` [SU20668-0279, 4-(3-amino-6-p-tolylpyrazine-2-carboxamido)benzoic acid]: on LKB1, the “LKB1 % Act. Increase” value is reported as “C (C=199-1000%)”.

The compound `O=C(NCc1ccccc1)c1csc(Nc2ccncn2)n1` [Thiazovivin] had a log2fc in the assay with ACHN cell line (setting [1]) of −0.4963.

In the case of `O=c1sn(-c2cccc3ccccc23)c(=O)n1Cc1ccccc1` [Tideglusib], the log2fc in the assay with ACHN cell line (setting [1]) is given as −0.007073. `COc1ccc2cc(-c3nc(-c4ccc([S+](C)[O-])cc4)[nH]c3-c3ccncc3)ccc2c1` (stereo not shown) [Tie2 kinase inhibitor] had a log2fc in the assay with ACHN cell line (setting [1]) of −0.08697. On to `O=C1NC(=O)[C@@H](c2cn3c4c(cccc24)CCC3)[C@@H]1c1c[nH]c2ccccc12` [Tivantinib (ARQ 197)], for which the log2fc with ACHN cell line (setting [1]) is given as 0.2709. For `COc1cc2nccc(Oc3ccc(NC(=O)Nc4cc(C)on4)c(Cl)c3)c2cc1OC` [Tivozanib (AV-951)], in the assay on ACHN cell line (setting [1]), the log2fc was determined as 0.798. Turning to `C[C@@H]1CCN(C(=O)CC#N)C[C@@H]1N(C)c1ncnc2[nH]ccc12.O=C(O)CC(O)(CC(=O)O)C(=O)O` [Tofacitinib (CP-690550) Citrate], in the assay on ACHN cell line (setting [1]), the log2fc came out at 0.3512. Still for that read-out and setting: next, `C[C@@H]1CCN(C(=O)CC#N)C[C@@H]1N(C)c1ncnc2[nH]ccc12` [Tofacitinib (CP-690550, Tasocitinib)]: 0.6421; `Nc1ccc(-c2ccc3ncc4ccc(=O)n(-c5cccc(C(F)(F)F)c5)c4c3c2)cn1` [Torin 2]: 1.267. For `CC(C)n1nc(-c2cc3cc(O)ccc3[nH]2)c2c(N)ncnc21` [Torkinib (PP242)], in the assay with ACHN cell line (setting [1]), the log2fc is −0.3157. For `Cc1cc(Nc2cc(N3CCN(C)CC3)nc(Sc3ccc(NC(=O)C4CC4)cc3)n2)n[nH]1` [Tozasertib (VX-680, MK-0457)], in the assay on ACHN cell line (setting [1]), the log2fc is reported as 0.9265. In the assay with ACHN cell line (setting [1]), `CC(=O)Nc1cccc(-n2c(=O)n(C3CC3)c(=O)c3c(Nc4ccc(I)cc4F)n(C)c(=O)c(C)c32)c1` [Trametinib (GSK1120212)] returned a log2fc of 0.4803. As for `CC(C)(C)c1cc(C=C(C#N)C#N)cc(C(C)(C)C)c1O` [Tyrphostin 9], in the assay with ACHN cell line (setting [1]), the log2fc is −0.5358. In the case of `CC(C)(C)c1cc(/C=C(\C#N)C(N)=S)cc(C(C)(C)C)c1O` [Tyrphostin AG 879], in the assay on ACHN cell line (setting [1]), the log2fc amounted to 0.3391. `N#CC(=C(/N)Sc1ccccc1N)/C(C#N)=C(\N)Sc1ccccc1N` [U0126-EtOH, U0126, reference compound] displayed a log2fc in the assay on ACHN cell line of −0.3988. For the compound `CN1CCN(Cc2ccc(-c3cnc4[nH]cc(-c5ccc6[nH]ccc6c5)c4c3)cc2)CC1` [URMC-099], in the assay on ACHN cell line (setting [1]), the log2fc came to 0.3515.

In the assay with ACHN cell line (setting [1]), `Cn1ncc(Cl)c1-c1cc(C(=O)N[C@H](CN)Cc2ccc(F)c(F)c2)oc1Cl` [Uprosertib (GSK2141795)] registered a log2fc of −1.387.

Turning to `CNCc1ccc(-c2cc(-c3nc(-c4ccc(S(=O)(=O)C(C)C)cc4)cnc3N)on2)cc1` [VE-822], in the assay with ACHN cell line (setting [1]), the log2fc is 0.3083.

For the compound `NC(=O)c1ccc(N(C(N)=O)c2c(F)cccc2F)nc1-c1ccc(F)cc1F` [VX-702], the log2fc in the assay with ACHN cell line (setting [1]) was −0.1168. In the assay on ACHN cell line (setting [1]), `O=c1ncn2nc(Sc3ccc(F)cc3F)ccc2c1-c1c(Cl)cccc1Cl` [VX-745] yielded a log2fc of −0.2953.

In turn, `C[C@@H]1COC(Nc2ccc3ncnc(Nc4ccc(OCc5nccs5)c(Cl)c4)c3c2)=N1` [Varlitinib] gave a log2fc in the assay with ACHN cell line (setting [1]) of 0.7999.

Consider `Cl.Cl.Clc1ccc(Nc2nnc(Cc3ccncc3)c3ccccc23)cc1` [Vatalanib (PTK787) 2HCl], for which the log2fc in the assay with ACHN cell line (setting [1]) is on record as −0.4289. In the assay on ACHN cell line (setting [1]), `CCCS(=O)(=O)Nc1ccc(F)c(C(=O)c2c[nH]c3ncc(-c4ccc(Cl)cc4)cc23)c1F` [Vemurafenib (PLX4032, RG7204), vemurafenib, reference compound] yielded a log2fc of 0.009154. Compound `CNC(=O)c1cccc(-c2ccc3c(N4CCOC[C@@H]4C)nc(N4CCOC[C@@H]4C)nc3n2)c1` [Vistusertib (AZD2014)] came in with a log2fc in the assay with ACHN cell line (setting [1]) of −0.8127. With `CC[C@@H]1C(=O)N(C)c2cnc(Nc3ccc(C(=O)N[C@H]4CC[C@H](N5CCN(CC6CC6)CC5)CC4)cc3OC)nc2N1C(C)C` [Volasertib (BI 6727)], the log2fc with ACHN cell line (setting [1]) amounted to 0.6372. `c1cncc(CN2CCC(n3ncc4c(N5CCOCC5)nc(-c5ccc6[nH]ccc6c5)nc43)CC2)c1` [WAY-600] displayed a log2fc with ACHN cell line (setting [1]) of −1.322. `COc1cc2ncnc(Nc3ccc(O)c(Br)c3)c2cc1OC` [WHI-P154] returned a log2fc in the assay with ACHN cell line (setting [1]) of 0.511. As for `C[C@H](NC(=O)/C(C#N)=C/c1cccc(Br)n1)c1ccccc1` [WP1066], in the assay with ACHN cell line (setting [1]), the log2fc is −0.4551. As to `COC(=O)Nc1ccc(-c2nc(N3CCOCC3)c3cnn(C4CCN(C(=O)OC)CC4)c3n2)cc1` [WYE-354], the log2fc in the assay with ACHN cell line (setting [1]) was −1.143.

Regarding `CNC(=O)Nc1ccc(-c2nc(N3CC4CCC(C3)O4)c3cnn(C4CCC5(CC4)OCCO5)c3n2)cc1` [WYE-125132 (WYE-132)], the log2fc in the assay on ACHN cell line (setting [1]) came to 0.04946. Regarding `C=CC(=O)Nc1cccc(Oc2nc(Nc3ccc(N4CCN(C)CC4)cc3)ncc2Cl)c1` [WZ3146, reference compound], the log2fc in the assay on ACHN cell line (setting [1]) came to 0.05459. With `C=CC(=O)Nc1cccc(Oc2nc(Nc3ccc(N4CCN(C)CC4)cc3OC)ncc2Cl)c1` [WZ4002, reference compound], the log2fc in the assay on ACHN cell line (setting [1]) was −0.07545. As to `C=CC(=O)Nc1cccc(Oc2nc(Nc3ccc(N4CCN(C)CC4)cc3OC)ncc2Cl)c1` [WZ4003], the log2fc with ACHN cell line (setting [1]) is −0.1405. As for `C=CC(=O)Nc1cccc(Sc2nc(Nc3ccc(N4CCN(C)CC4)cc3)ncc2Cl)c1` [WZ8040, reference compound], the log2fc in the assay on ACHN cell line (setting [1]) is listed as 0.02092. As to `O=C(Nc1ccc(-c2ccnc(Nc3ccc(N4CCOCC4)cc3)n2)cc1)C1CCCN1` (stereo not shown) [XL019], the log2fc in the assay with ACHN cell line (setting [1]) was −0.1669. Same read-out and setting: next, `CCOc1cc(N2CCC(O)CC2)ccc1Nc1ncc2c(n1)N(C)c1ccccc1C(=O)N2C` [XMD8-92]: −0.09901; `C[C@@H](N)[C@H]1CC[C@H](C(=O)Nc2ccncc2)CC1.Cl.Cl` [Y-27632 2HCl]: −0.01003; `Nc1ccc(C(=O)Nc2cccc(-c3nc(N4CCOCC4)c4oc5ncccc5c4n3)c2)cn1` [YM201636]: −0.5268. On the same count and under the same terms, next, `COc1cc2ncnc(Nc3ccc(Cl)cc3F)c2cc1OC` [ZM 306416]: 0.5807; `Cc1cc(F)c(Nc2ncnc3cc(OCc4ccccc4)ccc23)cc1O.Cl` [ZM 323881 HCl]: 0.1765. In the assay on ACHN cell line (setting [1]), `Cc1ccc(NC(=O)c2cccc(N(C)C)c2)cc1NC(=O)c1ccc(O)cc1` [ZM 336372] had a log2fc of 0.2177. `COc1cc2c(Nc3ccc(NC(=O)c4ccccc4)cc3)ncnc2cc1OCCCN1CCOCC1` [ZM 447439] yielded a log2fc with ACHN cell line (setting [1]) of 0.52. In turn, `FC(F)c1nc2ccccc2n1-c1nc(N2CCOCC2)nc(N2CCOCC2)n1` [ZSTK474] returned a log2fc in the assay on ACHN cell line (setting [1]) of −0.8509.

`CO[C@H]1C[C@@H]2CC[C@@H](C)[C@@](O)(O2)C(=O)C(=O)N2CCCC[C@H]2C(=O)O[C@H]([C@H](C)C[C@@H]2CC[C@H](n3cnnn3)[C@H](OC)C2)CC(=O)[C@H](C)/C=C(\C)[C@@H](O)[C@@H](OC)C(=O)[C@H](C)C[C@H](C)/C=C/C=C/C=C/1C` [Zotarolimus (ABT-578)]: in the assay with ACHN cell line (setting [1]), the log2fc is recorded as −1.34. Compound `CCN1CCN(Cc2ccc(Nc3ncc(F)c(-c4cc(F)c5nc(C)n(C(C)C)c5c4)n3)nc2)CC1` [abemaciclib (LY2835219)] had a log2fc with ACHN cell line (setting [1]) of 0.1618. As for CHIR-98014, the log2fc with ACHN cell line amounted to 3.928. As to GZD824 Dimesylate, the log2fc with ACHN cell line (setting [1]) came out at 1.434. KN-62: the log2fc in the assay on ACHN cell line (setting [1]) is given as −0.07258.

Regarding KX2-391, the log2fc in the assay with ACHN cell line (setting [1]) is on record as 0.3892. In turn, PF-477736 returned a log2fc in the assay with ACHN cell line (setting [1]) of −2.035.

In the assay with ACHN cell line (setting [1]), S-Ruxolitinib (INCB018424) returned a log2fc of −0.1855.

The compound SNS-314 Mesylate returned a log2fc with ACHN cell line (setting [1]) of 0.4469.

In the assay with ACHN cell line (setting [1]), Skepinone-L showed a log2fc of −0.7997.

(Values after patent publication US12195490B2, “STRAD-binding agents and uses thereof” (The Regents of the University of California, priority 2020, dated 2025).)
